The source of these data is patent US20070135399A1, “Heteroaromatic sulphonamide prodrugs” (priority 2005, published 2007).

Data set [1] deals with human carboanhydrase I (Homo sapiens, UniProt P00915). In words: Carboanhydrase inhibition, photometric, nitrophenyl acetate conversion (CA I). The format is biochemical. The text has this: (§1) a) Carboanhydrase Inhibition
(§2) Photometric determination of the inhibition of human carboanhydrase I or II by sulphonamides or sulphamates on microtitre plates with the aid of the enzymatic conversion of nitrophenyl acetate with a colour change from colourless to yellow.

For data set [2], the target named is human carboanhydrase II (Homo sapiens, UniProt P00918). In words: Carboanhydrase inhibition, photometric, nitrophenyl acetate conversion (CA II). The format is biochemical.
Source text: as §1, §2

The nature of data set [3]: Blood-plasma concentration ratio in heparinized rat blood.
Experimental: b) Blood-plasma concentration ratio—test principle and experimental description:
The blood-plasma ratio is calculated from the measured concentration and the theoretical concentration.
Setting [4] is: human carboanhydrase I, read-out: CA I IC50.
Where [5] appears, read: human carboanhydrase II, read-out: CA II IC50.
The mark [6] stands for this setting: freshly obtained heparinized whole blood.

Where two headings read alike, the source gives them in different places.

human carboanhydrase I, sequence (P00915 whole entry): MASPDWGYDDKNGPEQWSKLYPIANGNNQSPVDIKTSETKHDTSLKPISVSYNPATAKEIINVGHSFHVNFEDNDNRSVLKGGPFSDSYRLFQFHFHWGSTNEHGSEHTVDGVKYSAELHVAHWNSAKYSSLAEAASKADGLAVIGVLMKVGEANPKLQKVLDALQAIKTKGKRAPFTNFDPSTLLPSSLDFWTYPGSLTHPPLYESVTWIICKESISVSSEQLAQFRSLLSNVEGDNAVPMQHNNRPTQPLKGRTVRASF

In the case of `C[C@]12CC[C@@H]3c4ccc(O)cc4CC[C@H]3[C@@H]1CC[C@@H]2OC(=O)c1ccc(S(N)(=O)=O)nc1` [Compound 1, 3-Hydroxyoestra-1,3,5(10)-trien-17β-yl 6′-sulphamoylnicotinate], the IC50 in data set [1] (setting [4]) was determined as 2900 nM; in data set [2] (setting [5]), 31 nM.
`C[C@]12CC[C@@H]3c4ccc(O)cc4CC[C@H]3[C@@H]1CC[C@@H]2OC(=O)c1cncc(S(N)(=O)=O)c1` [Compound 2, 3-Hydroxyoestra-1,3,5(10)-trien-17β-yl 5′-sulphamoylnicotinate]: the half-inhibitory concentration (IC50) in data set [1] (setting [4]) stood at 2100 nM; in data set [2] (setting [5]) it was 160 nM. Further, the blood plasma ratio in data set [3] (setting [6]) stood at 2.
As to `CCc1sc(S(N)(=O)=O)cc1C(=O)O[C@H]1CC[C@H]2[C@@H]3CCc4cc(O)ccc4[C@H]3CC[C@]12C` [Compound 3, 3-Hydroxyoestra-1,3,5(10)-trien-17β-yl 2′-ethyl-5′-sulphamoylthiophene-3′-carboxylate], the IC50 in data set [1] (setting [4]) worked out at 3400 nM; in data set [2] (setting [5]), 42 nM. Also, in data set [3] (setting [6]), the blood plasma ratio was 1.8.
On the same counts, the results for `C[C@]12CC[C@@H]3c4ccc(O)cc4CC[C@H]3[C@@H]1CC[C@@H]2OC(=O)c1cc(S(N)(=O)=O)sc1Br` [Compound 4, 3-Hydroxyoestra-1,3,5(10)-trien-17β-yl 2′-bromo-5′-sulphamoylthiophene-3′-carboxylate] are 3300 nM, 47 nM and 9.5.
For the compound `C[C@]12CC[C@H]3[C@@H](CCC4=CC(=O)CC[C@@]43C)[C@@H]1CC[C@@H]2OC(=O)c1ccc(S(N)(=O)=O)nc1` [Compound 5, 3-Oxoandrost-4-en-17β-yl 6′-sulphamoylnicotinate], the IC50 was 3200 nM in data set [1] and 41 nM in data set [2]. For the same compound, the blood plasma ratio in data set [3] turned out to be 3.6.
With `C[C@]12CC[C@H]3[C@@H](CCC4=CC(=O)CC[C@@]43C)[C@@H]1CC[C@@H]2OC(=O)c1cncc(S(N)(=O)=O)c1` [Compound 6, 3-Oxoandrost-4-en-17β-yl 5′-sulphamoylnicotinate], the IC50 in data set [1] was determined as 2900 nM; in data set [2], 250 nM. Besides, the blood plasma ratio in data set [3] amounted to 5.7.
As to `C[C@]12CC[C@@H]3c4ccc(OS(N)(=O)=O)cc4CC[C@H]3[C@@H]1CC[C@@H]2O` [Oestradiol 3-sulphamate, reference compound], the Blood/plasma ratio entry is given as “About 50”. Further, the IC50 in data set [1] (setting [4]) was determined as 157 ± 10.6 nM. Further, the IC50 in data set [2] (setting [5]) turned out to be 34 nM.

For orientation: IC50 means the concentration at which inhibition is half-maximal.
